The numbers were not newly measured in patent publication US6060616A, “Bis-platinum complexes with polymethylene derivatives as ligands having antitumor activity” (Hoffmann-La Roche Inc., priority 1998, dated 2000), which cites them from elsewhere.

The conditions of the data set: clinical use, background.

Regarding `N.N.O=C([O-])C1(C(=O)[O-])CCC1.[Pt+2]` [carboplatin, [Pt(NH3)2(CBDCA)]], the nephrotoxicity entry is given as “reduction in the nephrotoxic effects”.
